The record followed here is patent publication US20190008151A1, “PLANT DISEASE CONTROL COMPOSITION AND PLANT DISEASE CONTROL METHOD” (SUMITOMO CHEMICAL COMPANY, LIMITED, priority 2015, published 2019).

One assay concerns wheat leaf blight fungus. Kind of assay: Test Example 3: growth of wheat leaf blight fungus in YBG medium, microtiter plate, absorbance at 550 nm. Type of assay: cell-based. To be noted: 18° C., six days. On the procedure:
The present compound 1 or the present compound 2-1 was dissolved into dimethyl sulfoxide such that each concentration of the present compound 1 or the present compound 2-1 was adjusted to one hundred fifty times as much as the concentration indicated in the below-mentioned Table 4. The resultant agent solution was dispensed into a microliter plate (with 96 wells) in 1 μl portion thereof per well. One hundred forty nine (149) μl of YBG medium (which was prepared by dissolving 10 g of yeast extract, 10 g of Bacto Peptone, and 20 mL of glycerol into 1 L of water, followed by sterilizing the medium) was dispensed into the wells to which the agent solution(s) was/were dispensed. The plate was cultivated at 18° C. for six days, thereby allowing wheat leaf blight fungus to undergo proliferation, and the absorbance at 550 nm of each well of the micro titer plate was then measured to examine a degree of growth of the wheat leaf blight fungus (hereinafter referred to as “treated group”).
Whereas, wheat leaf blight fungus was proliferated similarly to the case of the treated group except that dimethyl sulfoxide was used instead of the agent solution, and the degree of the growth was examined (hereinafter referred to as “untreated group”). The efficacy was calculated from the respective obtained degree of growth by the below-mentioned “Equation 1”.
Efficacy(%)=100×(X−Y)/X Equation 1 […]

The subject of assay [1] is wheat rust fungus (Puccinia recondite). Briefly: Test Example 4: foliar spray of flowable formulations on wheat, inoculation with wheat rust fungus, lesion area. The note with it: lesion area after ten days at 23° C. Type of assay: in vivo, Puccinia recondite on wheat (cultivar. Shirogane). As to the method:
Five (5) parts of the present compound 1, 35 parts of a mixture of white carbon and ammonium polyoxyethylene alkyl ether sulfate (the weight ratio of 1:1) and […] of water were mixed, and the mixture was then finely-ground by a wet grinding method to obtain a flowable formulation comprising the present compound 1. Separately, the flowable formulation comprising the present compound 2-1 was prepared according to the above-mentioned similar method except that the present compound 2-1 was used instead of the present compound 1 to form a flowable formulation comprising the present compound 2-1.
Each of the above-mentioned respective flowable formulations, and the flowable formulation comprising the present compound 1 and the present compound 2-1 that was prepared according to the above-mentioned Formulation Example 3 was diluted with water such that each concentration of the respective compounds in the dilution solutions was adjusted to that indicated in Table 5, to prepare the dilution solutions, respectively.
A plastic pot was filled with soil, and thereto wheat (cultivar. Shirogane) was seeded, and the plants were grown in a greenhouse for ten days. […]
From each of the lesion area of the treated group and the untreated group, respectively, the efficacy of the treated group was calculated by the below-mentioned Equation 2. […]

As to `CNC(=O)C(OC)c1ccccc1COc1cc(C)ccc1C` (stereo not shown) [Present compound 1], the “Efficacy (%)” value in the assay on wheat leaf blight fungus (concentration in medium 0.005 ppm) is 20%; with wheat leaf blight fungus (concentration in medium 0.1 ppm), 65%; in assay [1] (concentration 0.0005 ppm), 22%; in assay [1] (concentration 0.01 ppm), 46%.
